Test results as given in patent publication US7101878B1 (Agouron Pharmaceuticals, Inc., priority 1998, dated 2006).

Experiments:
[1] = target: NK3 (Homo sapiens, UniProt P29371); experiment: biochemical
[2] = target: H1 Histamine (Homo sapiens, UniProt P35367); experiment: Selectivity: H1 Histamine
[3] = target: Bradykinin 2 (Homo sapiens, UniProt P30411); experiment: biochemical
[4] = target: AT1 Angiotensin (Homo sapiens, UniProt P30556); experiment: biochemical
Chain of AT1 Angiotensin (P30556 whole entry): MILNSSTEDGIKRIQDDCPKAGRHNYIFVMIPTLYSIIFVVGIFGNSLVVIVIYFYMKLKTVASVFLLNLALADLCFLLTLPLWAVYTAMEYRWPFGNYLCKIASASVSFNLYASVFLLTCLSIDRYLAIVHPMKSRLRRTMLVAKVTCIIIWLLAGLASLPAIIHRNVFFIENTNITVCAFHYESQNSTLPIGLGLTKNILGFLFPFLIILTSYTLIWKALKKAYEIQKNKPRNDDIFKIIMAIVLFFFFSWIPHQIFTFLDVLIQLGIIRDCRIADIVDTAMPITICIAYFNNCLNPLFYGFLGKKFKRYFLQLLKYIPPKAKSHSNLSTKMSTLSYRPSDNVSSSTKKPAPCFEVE

Chain of NK3 (P29371 whole entry): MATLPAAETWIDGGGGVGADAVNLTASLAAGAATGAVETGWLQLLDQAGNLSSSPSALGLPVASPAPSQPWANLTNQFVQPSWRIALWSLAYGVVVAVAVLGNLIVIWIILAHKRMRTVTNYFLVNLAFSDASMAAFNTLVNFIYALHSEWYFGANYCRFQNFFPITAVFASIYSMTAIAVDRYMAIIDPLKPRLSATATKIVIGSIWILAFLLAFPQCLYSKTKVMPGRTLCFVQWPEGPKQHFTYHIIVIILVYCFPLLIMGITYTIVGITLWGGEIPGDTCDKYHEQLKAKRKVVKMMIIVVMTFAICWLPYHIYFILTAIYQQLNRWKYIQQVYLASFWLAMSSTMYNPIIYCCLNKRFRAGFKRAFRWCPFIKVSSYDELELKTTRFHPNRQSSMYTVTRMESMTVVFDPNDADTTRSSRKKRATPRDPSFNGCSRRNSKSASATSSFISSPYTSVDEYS
Chain of Bradykinin 2 (P30411 whole entry): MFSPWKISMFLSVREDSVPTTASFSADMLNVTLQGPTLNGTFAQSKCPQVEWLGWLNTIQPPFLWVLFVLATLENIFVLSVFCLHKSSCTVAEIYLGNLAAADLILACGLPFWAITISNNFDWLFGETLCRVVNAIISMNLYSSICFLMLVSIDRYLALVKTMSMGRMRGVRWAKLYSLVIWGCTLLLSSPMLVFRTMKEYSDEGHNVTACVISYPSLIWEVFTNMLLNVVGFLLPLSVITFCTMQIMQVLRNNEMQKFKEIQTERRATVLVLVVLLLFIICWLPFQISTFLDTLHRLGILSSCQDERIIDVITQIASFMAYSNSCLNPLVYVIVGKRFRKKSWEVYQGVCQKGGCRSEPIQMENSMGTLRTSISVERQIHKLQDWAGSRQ
Chain of H1 Histamine (P35367 whole entry): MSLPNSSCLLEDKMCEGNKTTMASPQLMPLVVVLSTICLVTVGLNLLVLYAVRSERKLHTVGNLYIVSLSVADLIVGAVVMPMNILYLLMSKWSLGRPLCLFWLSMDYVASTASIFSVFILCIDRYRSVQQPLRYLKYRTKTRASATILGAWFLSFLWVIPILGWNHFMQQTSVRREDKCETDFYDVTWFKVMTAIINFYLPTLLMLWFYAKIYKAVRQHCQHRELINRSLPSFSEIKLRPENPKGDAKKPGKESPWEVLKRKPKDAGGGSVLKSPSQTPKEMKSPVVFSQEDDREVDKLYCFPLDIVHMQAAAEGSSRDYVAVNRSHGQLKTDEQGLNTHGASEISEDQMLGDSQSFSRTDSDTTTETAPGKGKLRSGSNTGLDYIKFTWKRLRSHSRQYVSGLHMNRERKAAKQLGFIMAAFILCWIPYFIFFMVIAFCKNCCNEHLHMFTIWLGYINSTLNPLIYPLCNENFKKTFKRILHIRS

Q: For `COc1cccc(OC)c1NC(=O)c1ccc(Cc2cc3c(cc2C)C(C)(C)CCC3(C)C)o1` [Compound 20], which Ki [1] is on record?
A: 1 to 5 µM

Q: What about the Ki [2] of the same compound?
A: > 1 µM

Q: What about the Ki [3] of the same compound?
A: > 1 µM

Q: What about the Ki [4] of the same compound?
A: 3 to 5 µM
